Our source for the TGI and GI50 values is PubChem BioAssay (NCI).

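Test compounds were applied to cells in 96-well plates for 48 hours at 5 doses. At the GI50, growth is halved. TGI marks complete inhibition of growth.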

Test systems include ACHN renal; HOP-62 NSCLC; NCI-H226 lung; NCI-H460 lung; RXF 393 renal; SK-MEL-2 melanoma; SK-OV-3 ovarian; MDA-MB-435; NCI/ADR-RES ovarian; MCF7 breast.
Holding throughout (experiment): NCI tumour cell line growth inhibition, 48 h

For `O=C(c1ccccc1)[C@H]1Nc2cnccc2C2c3ccccc3CC21` (stereo partly specified), the TGI in the experiment on ACHN renal was 37.1 µM; in the experiment with HOP-62 NSCLC, above 71.4 µM; in the experiment on NCI-H226 lung, 20.2 µM; in the experiment with NCI-H460 lung it was 33.9 µM; in the experiment on RXF 393 renal, 50.4 µM; with SK-MEL-2 melanoma, 29.9 µM. This molecule also had a TGI with SK-OV-3 ovarian of 44.8 µM.

`CCOC(=O)/C(=C/c1ccco1)P(=O)(OCC)OCC`: the TGI with ACHN renal, in the experiment with NCI-H226 lung, in the experiment with NCI-H460 lung, in the experiment on SK-MEL-2 melanoma and in the experiment with SK-OV-3 ovarian was above 100 µM in each case.

Regarding `NC(CCSCC(F)F)C(=O)O` (stereo unspecified), the TGI in the experiment on ACHN renal, in the experiment with HOP-62 NSCLC, with NCI-H226 lung, with NCI-H460 lung and in the experiment on RXF 393 renal was above 100 µM each time.

As to `FC(F)=C(c1ccc(-c2ccc(Cl)cc2)cc1)C(F)(F)F`, the TGI was found to be 31.1 µM with ACHN renal; 49.4 µM with MDA-MB-435; 33.7 µM in the experiment on NCI-H460 lung; 63.8 µM in the experiment with NCI/ADR-RES ovarian; 40.9 µM with RXF 393 renal; 42.5 µM with SK-MEL-2 melanoma. This molecule also showed a TGI in the experiment on SK-OV-3 ovarian of 41.2 µM.

With `COC(=O)c1cc(C(=O)OC)cc(-c2ccc3c(c2)-c2nc4c(c(-c5ccc(OC)cc5)c2CC3)CCc2ccc(-c3cc(C(=O)OC)cc(C(=O)OC)c3)cc2-4)c1`, the TGI in the experiment on ACHN renal, in the experiment with HOP-62 NSCLC, in the experiment on MCF7 breast, in the experiment with MDA-MB-435, with NCI-H226 lung and in the experiment on NCI-H460 lung was above 100 µM each time. Also, the TGI in the experiment with NCI/ADR-RES ovarian, with SK-MEL-2 melanoma and in the experiment on SK-OV-3 ovarian was above 100 µM throughout.

On to `COc1cc(OC)c(C2c3cc4c(cc3OC(N3CCOCC3)C2C)OCO4)c(OC)c1` (stereo unspecified), for which the TGI in the experiment on ACHN renal was 82.4 µM; with HOP-62 NSCLC it was above 100 µM; with MCF7 breast, above 100 µM; with MDA-MB-435 it was above 100 µM; with NCI-H460 lung it was above 100 µM; in the experiment on NCI/ADR-RES ovarian it was above 100 µM. This molecule also showed a TGI in the experiment with SK-MEL-2 melanoma above 100 µM.

In the case of `Cc1cc(C)nc(NS(=O)(=O)c2ccc(Nc3c4ccccc4nc4c(C(=O)N5CCN(CCOS(C)(=O)=O)CC5)ccc(Cl)c34)cc2)n1`, the TGI with ACHN renal, in the experiment with HOP-62 NSCLC, in the experiment on NCI-H226 lung, in the experiment on NCI-H460 lung, in the experiment on RXF 393 renal and in the experiment with SK-MEL-2 melanoma was above 100 µM each time. The TGI with SK-OV-3 ovarian was above 100 µM.

In the case of `O=C1c2c(c3c4ccc(Br)cc4oc3c3[nH]c4ccccc4c23)C(=O)N1O`, the GI50 in the experiment with ACHN renal is 1.11 µM; with MCF7 breast, 1.12 µM; in the experiment on MDA-MB-435, 3.11 µM; in the experiment with NCI-H226 lung, 2.34 µM; in the experiment with NCI/ADR-RES ovarian, 2.64 µM; with RXF 393 renal it was 2.1 µM. The GI50 was 2.34 µM in the experiment on SK-MEL-2 melanoma and 2.84 µM with SK-OV-3 ovarian. Besides, the TGI with ACHN renal is above 100 µM; in the experiment with MCF7 breast, above 100 µM; with MDA-MB-435 it was above 100 µM; with NCI-H226 lung, above 100 µM; in the experiment with NCI/ADR-RES ovarian, above 100 µM; with RXF 393 renal it was 6.34 µM. Also, the figures for the TGI in the experiment on SK-MEL-2 melanoma and in the experiment with SK-OV-3 ovarian were 7.23 µM and above 100 µM, respectively.

As for `Cc1cc2c(cc1Cl)SC(NNc1cnc3ccccc3n1)=NS2(=O)=O`, the TGI in the experiment on ACHN renal, with HOP-62 NSCLC, in the experiment on MDA-MB-435, in the experiment with NCI-H226 lung, in the experiment on NCI-H460 lung and in the experiment with NCI/ADR-RES ovarian was above 100 µM in each case. Also, the TGI in the experiment on RXF 393 renal and in the experiment on SK-OV-3 ovarian was above 100 µM in each case.

In the case of `CCC1(CC)C(=O)NC(=S)N=C1N`, the TGI with ACHN renal, in the experiment with HOP-62 NSCLC, in the experiment on NCI-H226 lung, with NCI-H460 lung, in the experiment with RXF 393 renal and in the experiment on SK-MEL-2 melanoma was above 100 µM each time. This molecule also showed a TGI in the experiment with SK-OV-3 ovarian above 100 µM.

Turning to `CCOC(=O)c1c(NC(=S)Nc2ccc(C)cc2)sc2c1CCN(C)C2`, the TGI in the experiment on ACHN renal, in the experiment with HOP-62 NSCLC, in the experiment on MCF7 breast, with NCI-H226 lung, in the experiment on NCI-H460 lung and in the experiment with NCI/ADR-RES ovarian was above 100 µM each time. In addition, the TGI in the experiment with RXF 393 renal and with SK-MEL-2 melanoma was above 100 µM each time.

As for `N#CC(C#N)=Cc1cccc(Oc2ccccc2)c1`, the TGI was 34.1 µM in the experiment with ACHN renal; 64.6 µM in the experiment on HOP-62 NSCLC; above 69.1 µM with NCI-H226 lung; 61 µM in the experiment on NCI-H460 lung; 33.4 µM in the experiment on RXF 393 renal; 49 µM in the experiment on SK-MEL-2 melanoma. In the experiment with SK-OV-3 ovarian, the TGI was above 100 µM.

On to `COC(=O)/C(=N\NC(=S)NN)C(C(=O)C(=O)Nc1ccccc1C(N)=O)c1nc2ccccc2[nH]c1=O` (stereo unspecified), for which the TGI in the experiment on ACHN renal, in the experiment on NCI-H226 lung, in the experiment on RXF 393 renal and in the experiment with SK-MEL-2 melanoma was above 100 µM in each case.

`COc1cc2c3c(n(C)c(=O)c2cc1OC)-c1cc2c(cc1/C3=C/CCCCBr)OCO2`: the TGI with ACHN renal, with HOP-62 NSCLC, with MCF7 breast, with MDA-MB-435, in the experiment on NCI-H460 lung and with NCI/ADR-RES ovarian was above 100 µM throughout. Also, the TGI in the experiment with RXF 393 renal, with SK-MEL-2 melanoma and in the experiment on SK-OV-3 ovarian was above 100 µM throughout. Besides, the GI50 in the experiment with HOP-62 NSCLC was 26.6 µM; in the experiment on MDA-MB-435, above 100 µM.

For the molecule `O=C1CCn2c([nH]c3cccc4cccc2c43)=N1`, the TGI with ACHN renal, in the experiment with HOP-62 NSCLC, in the experiment with NCI-H226 lung, with NCI-H460 lung, in the experiment with RXF 393 renal and in the experiment on SK-OV-3 ovarian was above 100 µM throughout.

With `O=C(NN1C(=O)CSC1c1ccc(Cl)c(Cl)c1)c1ccncc1` (stereo unspecified), the TGI with ACHN renal, in the experiment on RXF 393 renal, with SK-MEL-2 melanoma and in the experiment on SK-OV-3 ovarian was above 100 µM throughout.

As to `CCOC(=O)C(C)NC(=O)N(C)C12CC3CC(CC(C3)C1)C2` (stereo unspecified), the TGI in the experiment with HOP-62 NSCLC is above 422 µM; in the experiment with MCF7 breast, 395 µM; with NCI-H226 lung, 489 µM; in the experiment on NCI-H460 lung, above 442 µM; in the experiment with NCI/ADR-RES ovarian it was 424 µM; in the experiment with RXF 393 renal, above 455 µM. Further, the TGI is above 316 µM in the experiment with SK-MEL-2 melanoma and 493 µM in the experiment on SK-OV-3 ovarian.
